Measured values reported in patent US8865659B2, “Compositions for prevention or treatment of Hepatitis C virus containing ginsenoside Rg3 as an active ingredient” (priority 2012, dated 2014).

Columns and labels:
[1] = system: Hepatitis C virus (JFH-1); experiment: Real-time PCR against JFH-1 mRNA in Huh 7.5.1 cells; type: cell-based; details: 100 μM, 72 hours
Experimental: The experiment was carried out as follow. First, 200,000 Huh 7.5.1 cells were placed in a 60×15 mm cell culture dish. Next day, Japanese Fulminant Hepatitis-1 virus (JFH-1) stock vial which was stored in −70° C. refrigerator was taken out and thawed out in a container filled with ice-water. The culture medium was collected from the cultured 60×15 mm cell culture dish, washed with 1×PBS and collected, again. 1.5 ml of JFH-1 virus solution per 60×15 mm cell culture dish each was added. The dish was shaken to cover the surface sufficiently. The dish was laid in a 5% CO2 incubator at 37° C. for 6 hours and after that, the supernatant was draw out. 1×PBS was spread on the cell surface as slow as possible and after one time washing, cells were collected. 5 ml of cell culture media was added to control and JFH-1 treatments groups. […] After that, the cell culture media was laid in a 5% CO2 incubator at 37° C. After 72 hours, the following steps were carried out.
As described in the above Example 3, the Huh 7.5.1 cells were treated with each 100 μM of seven ginsenosides (Ro, Re, Rg1, Rg2, Rg3, Rh1, Rh2). After 72 hours, a real-time PCR against JFH-1 mRNA was carried out. […]
Specific real-time PCR carried out was as follow. […] After that, total RNA was extracted from the cells treated by the above described method by using Rneasy mini kit (QIAGEN) and quantified by using Nanodrop 1000 (Thermo Scientific). […]

[2] = system: Huh 7.5.1 cells infected with JFH-1 virus; experiment: Microscopic identification of virus suppression effect (cell shape, phase contrast microscope); type: cell-based; details: 100 μM, JFH-1 infected
Experimental: About 200,000 Huh 7.5.1 cells were added to a 60×15 mm cell culture dish and every 100 μM of seven ginsenosides (Ro, Re, Rg1, Rg2, Rg3, Rh1, Rh2) per 60×15 mm cell culture dish each was treated. Since it was necessary for ginsenosides in powder formulation to make solutions for the experiments, 50 mM basic concentration solutions for the seven ginsenosides each were prepared and the basic solutions were refrigerated at 4° C. until they were needed.
Non-treatment group (Control), Non-treatment group and DMSO 10 μl treatment group (Control+DMSO 10 μl), JFH-1 virus treatment group (Only JFH-1), JFH-1 virus and DMSO 10 μl treatments group (JFH-1+DMSO 10 μl), JFH-1 virus and Ro 100 uM treatments group (JFH-1+Ro 100 uM), JFH-1 virus and Re 100 uM treatments group (JFH-1+Re 100 uM), JFH-1 virus and Rg1 100 uM treatments group (JFH-1+Rg1 100 uM), JFH-1 virus and Rg2 100 uM treatments group (JFH-1+Rg2 100 uM), JFH-1 virus and Rg3 100 uM treatments group (JFH-1+Rg3 100 uM), JFH-1 virus and Rh1 100 uM treatments group (JFH-1+Rh1 100 uM), JFH-1 virus and Rh2 100 uM treatments group (JFH-1+Rh2 100 uM), JFH-1 virus and Rg1 100 uM treatments group (JFH-1+Rg1 100 uM).
The experiment was carried out as follow. First, 200,000 Huh 7.5.1 cells were placed in a 60×15 mm cell culture dish. Next day, Japanese Fulminant Hepatitis-1 virus (JFH-1) stock vial which was stored in −70° C. refrigerator was taken out and thawed out in a container filled with ice-water. The culture medium was collected from the cultured 60×15 mm cell culture dish, washed with 1×PBS and collected, again. 1.5 ml of JFH-1 virus solution per 60×15 mm cell culture dish each was added. The dish was shaken to cover the surface sufficiently. The dish was laid in a 5% CO2 incubator at 37° C. for 6 hours and after that, the supernatant was draw out. 1×PBS was spread on the cell surface as slow as possible and after one time washing, cells were collected. 5 ml of cell culture media was added to control and JFH-1 treatments groups. At the last step of virus-infection, 5 ml CM and each […] of ginsenosides which was set to 50 mM concentration were added to the cell culture media. After that, the cell culture media was laid in a 5% CO2 incubator at 37° C. After 72 hours, the following steps were carried out.
As described in the above Example 3, each 100 μM of seven ginsenosides (Ro, Re, Rg1, Rg2, Rg3, Rh1, Rh2) was treated to Huh 7.5.1 cells. After 24 hours and 72 hours, the shapes of Huh 7.5.1 cells were observed using a phase contrast microscope (ECLIPSE TE300, Nicon) of 400× magnifications.

## CC(C)=CCC[C@](C)(O)[C@H]1CC[C@]2(C)[C@@H]1[C@H](O)C[C@@H]1[C@@]3(C)CC[C@H](O[C@@H]4O[C@H](CO)[C@@H](O)[C@H](O)[C@H]4O[C@@H]4O[C@H](CO)[C@@H](O)[C@H](O)[C@H]4O)C(C)(C)[C@@H]3CC[C@]12C [ginsenoside Rg3]
[1]
  JFH-1 mRNA: remarkably decreased
[2]; 24 hours after treatment
  shapes of Huh 7.5.1 cells: fuses cells
[2]; 72 hours after treatment
  shapes of Huh 7.5.1 cells: fuses cells
